Measurements taken from ChEMBL document CHEMBL3046528, “Pharmacophore-based 3D-QSAR study of fungal chitin synthase inhibitors” (Med Chem Res, 2013).

molecular target: Chitin synthase (Candida albicans, UniProt P30572+P23316+P30573); test: Inhibition of Candida albicans chitin synthase; type: protein assay

Structure (SMILES) | pIC50
CN(C/C=C/C#CC(C)(C)C)c1cccc2c1CCC(=O)N2 | 5.029
CC(C)N(C/C=C/C#CC(C)(C)C)c1cccc2c1CCC(=O)N2 | 5.421
CN(CCCC#CC(C)(C)C)c1cccc2c1CCC(=O)N2 | 4.523
CN(Cc1ccc(C#CC(C)(C)C)cc1)c1cccc2c1CCC(=O)N2 | 4.681
CC(C)(C)C#C/C=C/CNc1cccc2c1CCC(=O)N2 | 3.6
CN(CC#CC#CC(C)(C)C)c1cccc2c1CC(O)C(=O)N2 (configuration not stated) | 5.015
CCN(C/C=C/C#CC(C)(C)C)c1cccc2c1CCC(=O)N2 | 5.538
CCCCCN(C/C=C/C#CC(C)(C)C)c1cccc2c1CCC(=O)N2 | 5.506
CCCN(C/C=C/C#CC(C)(C)C)c1cccc2c1CCC(=O)N2 | 5.679

Continued, values first:

pIC50 | Structure (SMILES)
4.401 | CN(CC#CC#CC(C)(C)C)c1cccc2c1CC(N)C(=O)N2 (configuration not stated)
4.529 | CCC#CC#CCN(C)c1cccc2c1CCC(=O)N2
4.422 | CC(C)[C@H](N)C(=O)OC1Cc2c(cccc2N(C)CC#CC#CC(C)(C)C)NC1=O (some centres not stated)
6.323 | CN(CC#CC#CC(C)(C)C)c1cccc2c1CCC(=O)N2
5.985 | CCCCN(C/C=C/C#CC(C)(C)C)c1cccc2c1CCC(=O)N2
5.769 | CCOP(=O)(OCC)OC1Cc2c(cccc2N(C)CC#CC#CC(C)(C)C)NC1=O (configuration not stated)
3.143 | CN(CC#CC#CC(C)(C)O)c1cccc2c1CCC(=O)N2
3.839 | CC(C)(C)C#C/C=C/CN(Cc1ccccc1)c1cccc2c1CCC(=O)N2

molecular target: T1, Chitin synthase 3 (Saccharomyces cerevisiae S288c, UniProt P29465); test: Inhibition of Saccharomyces cerevisiae chitin synthase
T1 sequence (P29465 whole entry): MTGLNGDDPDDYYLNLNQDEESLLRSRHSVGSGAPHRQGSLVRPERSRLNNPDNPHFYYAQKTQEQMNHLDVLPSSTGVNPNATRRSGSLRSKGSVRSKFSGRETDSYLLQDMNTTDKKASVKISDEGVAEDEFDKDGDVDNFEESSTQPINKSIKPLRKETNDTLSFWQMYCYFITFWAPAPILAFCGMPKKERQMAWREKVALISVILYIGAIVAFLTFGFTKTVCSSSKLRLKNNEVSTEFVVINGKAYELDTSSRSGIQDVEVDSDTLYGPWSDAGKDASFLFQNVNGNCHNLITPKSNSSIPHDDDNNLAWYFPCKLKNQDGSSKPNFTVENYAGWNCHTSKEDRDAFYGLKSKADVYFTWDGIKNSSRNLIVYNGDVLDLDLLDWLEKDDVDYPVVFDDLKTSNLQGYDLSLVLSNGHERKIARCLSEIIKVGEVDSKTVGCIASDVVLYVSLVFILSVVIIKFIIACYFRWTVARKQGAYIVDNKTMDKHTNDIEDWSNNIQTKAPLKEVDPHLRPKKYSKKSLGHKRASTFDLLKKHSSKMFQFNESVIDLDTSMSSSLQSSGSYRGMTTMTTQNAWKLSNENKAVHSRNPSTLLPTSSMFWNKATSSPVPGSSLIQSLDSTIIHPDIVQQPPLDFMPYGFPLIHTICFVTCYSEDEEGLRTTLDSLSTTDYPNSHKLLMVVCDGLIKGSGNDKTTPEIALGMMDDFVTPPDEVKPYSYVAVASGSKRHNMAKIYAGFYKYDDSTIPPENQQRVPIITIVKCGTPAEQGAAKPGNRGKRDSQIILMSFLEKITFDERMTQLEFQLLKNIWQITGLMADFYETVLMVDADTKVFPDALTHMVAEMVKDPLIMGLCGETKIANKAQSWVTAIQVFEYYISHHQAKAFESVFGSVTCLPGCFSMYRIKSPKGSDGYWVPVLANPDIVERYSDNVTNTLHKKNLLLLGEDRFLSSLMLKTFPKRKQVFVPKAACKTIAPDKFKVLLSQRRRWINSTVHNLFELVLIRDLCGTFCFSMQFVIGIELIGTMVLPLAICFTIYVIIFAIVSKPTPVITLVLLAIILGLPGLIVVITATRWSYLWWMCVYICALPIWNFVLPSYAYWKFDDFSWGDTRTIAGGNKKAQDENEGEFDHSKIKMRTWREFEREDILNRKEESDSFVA

Structure (SMILES) | IC50
O=C(/C=C/c1ccc2ccccc2c1)c1ccccc1 | 94.2 µM
O=C(/C=C/c1ccco1)c1ccc(Cl)cc1Cl | 824 µM
COc1cccc(/C=C/C(=O)c2ccccc2)c1OC | 298 µM

More lines, now with the values ahead:

IC50 | Structure (SMILES)
372 µM | COc1ccc(/C=C/C(=O)c2ccccc2)cc1OC
372 µM | COc1ccc(/C=C/C(=O)c2ccccc2)c(OC)c1
